Measurements taken from patent publication US20260151457A1, “Peptides and Fragments for Treating Diabetes and Associated Metabolic Diseases” (Betavive Ltd., priority 2024, published 2026).
Entries after “also recorded” stand apart in the source; their conditions may differ.

Experiments:
C57BL/6 STZ mice = assay: Fasting blood glucose in STZ-induced diabetic C57BL/6 mice treated with IGF-2; format: in vivo; settings: for Fasting glucose levels: individual mice per block
Procedure: C57BL/6 mice male 8-10 weeks old, housed under conventional conditions and allowed laboratory chow and water ad libitum, were used in the experiments described below in Examples 3-4. Within each experiment, animals were matched by age and weight (20-24 g) and randomly divided into groups to receive different treatments. Diabetes was induced by one or more doses of streptozotocin (STZ).
Briefly, animals received intraperitoneally (i.p.) 100 mg/kg (b.w.) STZ (Cayman Chemical, Ann Arbor, MI) dissolved in citrate buffer on pH 4.5 (this procedure was repeated if needed). Clinical diabetes was defined by hyperglycemia (blood glucose levels >300 mg/dl in fasted animals). Fasting blood glucose levels were measured three times per week and samples were taken from the tail tip after starvation for 6 hours throughout the experiment.
Fasting blood glucose levels (mg/dL) were determined using the Accu-Chek Performa glucometer (Roche Diagnostics, Mannheim, Germany). After approximately two weeks of stable hyperglycemia, C57BL/6 STZ mice received exogenous injections of recombinant human IGF-2 (0.3-12 mg/kg/day injection) intraperitoneally for 5-10 consecutive days. During post-treatment follow-up period and upon termination, mice were tested for: fasting glucose, body weight, glucose tolerance test (IPGTT), serum C-peptide level, serum insulin level, and full blood and histological analysis (CBC, Chemistry, Insulin IHC and H&E).

STZ-treated mice = assay: Pancreas histology and insulin immunohistochemistry in STZ-treated mice; format: in vivo
Procedure: FIG. 21 depicts pancreas histology results on STZ-treated mice. […] The non-control mice were treated once a day for 10 days with a 3000 μg/kg dose of IGF-2. The mice were sacrificed on day 35 and pancreas cells were assessed as being insulin positive or negative.

[1] = tested on: human pancreatic islet cells; assay: Insulin secretion of human pancreatic islet cells in response to a glucose pulse; format: cell-based; settings: IGF-2 50 nM for four days
[2] = Safety/toxicity: pathology of blood samples and tissue samples from thirty organs; format: in vivo; settings: end of 10 days of treatment, 24 days after termination, and 100 days after termination of 30 days of treatment
[3] = average of four STZ mice, daily intraperitoneal 3000 μg/kg/day IGF-2

With insulin-like growth factor 2 [IGF-2] the Hypoglycemia (C57BL/6 STZ mice; 10:1 ratio of dosages, between 3000 μg and 300 μg) was “did not cause hypoglycemia”, the “Fasting glucose levels after the ten day course of injections ended” value (C57BL/6 STZ mice; STZ mice F3 and F4, IGF-2 800 μg/kg/day) was “around 400” and the Fasting glucose levels (C57BL/6 STZ mice; STZ mice, IGF-2 300 μg/kg/day, initial plus ten additional doses) was “did not return to a normal range, and long-term results were not observed; also recorded: temporary drop in fasting glucose levels from days 10-25, but the long-term results were similar to the results for Mouse B5”. For the same substance, the Fasting glucose levels (C57BL/6 STZ mice; STZ mice, IGF-2 800 μg/kg/day, day 0 and ten more times within ten days) was “returned to a normal range during the ten-day course of treatment with IGF-2, and remained in the normal range until the end of the experiment; also recorded: returned to a normal range during the ten-day course of treatment with IGF-2, and remained in the normal range until STZ was provided again”, the “Blood glucose levels remaining (full or almost full resolution)” value (C57BL/6 STZ mice; STZ mice, IGF-2 800 μg/kg/day, half the mice (FIGS. 5A, 5B)) was about 200 mg/dL and the “Blood glucose levels remaining (partial improvement)” value (C57BL/6 STZ mice; STZ mice, IGF-2 800 μg/kg/day, the remaining mice (FIGS. 6A, 6B)) was about 400 mg/dL. The Fasting glucose levels (C57BL/6 STZ mice; STZ mice, IGF-2 3000 μg/kg/day, 10 day course) was “returned to a normal range during the ten-day course of treatment with IGF-2, and remained in the normal range until the end of the experiment; also recorded: returned to high levels after the 10 day course treatment with IGF-2 ended; also recorded: initially responded to treatment with a 3000 μg/kg/day dose of IGF-2 but were not permanently cured”, the “Long-term improvements in blood glucose levels” value (C57BL/6 STZ mice; STZ mice, IGF-2 12,000 μg/kg daily on only 5 consecutive days) was “long-term improvements in blood glucose levels were not obtained” and the “Blood glucose level reached (normal range)” value (C57BL/6 STZ mice; [3]) was 100 to 200 mg/dL. The “Time to reduce blood glucose to a normal range” value (C57BL/6 STZ mice; [3]) was 3 to 5 days, the Hypoglycemia (C57BL/6 STZ mice; even when the IGF-2 dose was increased to 12,000 μg/kg/day) was “Hypoglycemia was never observed” and the “Time post treatment that normal blood glucose levels are maintained” value (C57BL/6 STZ mice; four STZ mice, 10 day course at 3000 μg/kg/day, no additional doses) was “at least 300 days”. For the same substance, the “Level of insulin in pancreas islets compared to a naïve mouse (IHC)” value (STZ-treated mice; non-permanently cured mouse) was “lower level of insulin in its pancreas islets”, the “Increase in the number of functional beta cells” value (STZ-treated mice; permanently cured mice, 3000 μg/kg once a day for 10 days, sacrificed on day 35) was “four” and the “Level of insulin in pancreas islets compared to a naïve mouse (IHC)” value (STZ-treated mice; permanently cured mouse) was “higher level of insulin in its pancreas islets”. The “Increase in insulin secretion in response to a glucose pulse compared to untreated cells” value [1] was about 50% and the “Pathologies related to treatment in blood samples and tissue samples from thirty organs” value [2] was “No pathologies were identified”.
